According to US10906897B2, “Microbiocidal heterobicyclic derivatives” (priority 2015, dated 2021):

Tests used:
[1] = tested on: Monographella nivalis (Microdochium nivale); assay: Monographella nivalis (Microdochium nivale) / liquid culture (foot rot cereals); assay type: cell-based; conditions: 96 h, growth inhibition photometrically 4-5 days after application, compared to untreated control
[2] = tested on: Mycosphaerella graminicola (Septoria tritici); assay: Mycosphaerella graminicola (Septoria tritici) / liquid culture (Septoria blotch); assay type: cell-based; conditions: Zymoseptoria tritici, growth inhibition photometrically 4-5 days after application, compared to untreated control
Fusarium culmorum = assay: microbe, parasite or virus in culture; assay type: cell-based; conditions: read-out: control of Fusarium culmorum
[3] = tested on: Glomerella lagenarium (Colletotrichum lagenarium); assay: Glomerella lagenarium (Colletotrichum lagenarium) / liquid culture (Anthracnose); assay type: cell-based; conditions: Colletotrichum orbiculare, growth inhibition photometrically 3-4 days after application, compared to untreated control
[4] = tested on: Magnaporthe grisea (Pyricularia oryzae); assay: microbe, parasite or virus in culture; assay type: cell-based; conditions: read-out: control of Magnaporthe grisea
Gaeumannomyces graminis = Gaeumannomyces graminis / liquid culture (Take-all of cereals); assay type: cell-based; conditions: growth inhibition photometrically 4-5 days after application, compared to untreated control
[5] = tested on: Botryotinia fuckeliana (Botrytis cinerea); assay: Botryotinia fuckeliana (Botrytis cinerea) / liquid culture (Gray mould); assay type: cell-based; conditions: growth inhibition photometrically 3-4 days after application, compared to untreated control
Sclerotinia sclerotiorum = Sclerotinia sclerotiorum / liquid culture (cottony rot); conditions: read-out: control of Sclerotinia sclerotiorum
Protocol: Sclerotinia sclerotiorum/Liquid Culture (Cottony Rot)
Mycelia fragments of a newly grown liquid culture of the fungus are directly mixed into 5 nutrient broth (Vogels broth). After placing a (DMSO) solution of test compound into a microtiter plate (96-well format) the nutrient broth containing the fungal material is added. The test plates are incubated at 24° C. and the inhibition of growth is determined photometrically 3-4 days after application.

[6] = tested on: Magnaporthe grisea (Pyricularia oryzae); assay: whole plant or invertebrate; assay type: in vivo; conditions: foliar, read-out: control of Magnaporthe grisea

Row | Compound | inhibition of growth at 20 ppm [1] | inhibition of growth at 20 ppm [2] | inhibition of growth at 20 ppm (Fusarium culmorum) | inhibition of growth at 20 ppm [3] | inhibition of growth at 60 ppm [4] | inhibition of growth at 20 ppm (Gaeumannomyces graminis) | inhibition of growth at 20 ppm [5] | inhibition of growth at 20 ppm (Sclerotinia sclerotiorum) | melting point | pest or weed control at 200 ppm [6]
1 | CC1(C)N=C(c2cnn3ccccc23)c2ccccc2C1(F)F [Compound E-80, 4,4-difluoro-3,3-dimethyl-1-pyrazolo[1,5-a]pyridin-3-yl-isoquinoline] | ≥ 80% | ≥ 80% | ≥ 80% | ≥ 80% | ≥ 80% | ≥ 80% | ≥ 80% | ≥ 80% | 78 to 82 °C | 
2 | CC1(C)N=C(c2cnn3cc(Br)ccc23)c2ccccc2C1(F)F [Compound E-81, 1-(6-bromopyrazolo[1,5-a]pyridin-3-yl)-4,4-difluoro-3,3-dimethyl-isoquinoline] | ≥ 80% | ≥ 80% | ≥ 80% | ≥ 80% | ≥ 80% | ≥ 80% | ≥ 80% | ≥ 80% | 127 to 129 °C | ≥ 50%
3 | CC1(C)N=C(c2cnn3cc(Br)ccc23)c2ccccc2C1=O [Compound E-82, 1-(6-bromopyrazolo[1,5-a]pyridin-3-yl)-3,3-dimethyl-isoquinolin-4-one] | ≥ 80% | ≥ 80% | ≥ 80% | ≥ 80% | ≥ 80% | ≥ 80% | ≥ 80% | ≥ 80% | 147 to 149 °C | 
4 | Cc1ccc2c(C3=NC(C)(C)C(F)(F)c4ccccc43)cnn2c1 [Compound E-83, 4,4-difluoro-3,3-dimethyl-1-(6-methylpyrazolo[1,5-a]pyridin-3-yl)isoquinoline] | ≥ 80% | ≥ 80% | ≥ 80% | ≥ 80% | ≥ 80% | ≥ 80% | ≥ 80% | ≥ 80% | 105 to 107 °C | ≥ 50%
5 | CCc1ccc2c(C3=NC(C)(C)C(F)(F)c4ccccc43)cnn2c1 [Compound E-86, 1-(6-ethylpyrazolo[1,5-a]pyridin-3-yl)-4,4-difluoro-3,3-dimethyl-isoquinoline] |  | ≥ 80% | ≥ 80% | ≥ 80% | ≥ 80% | ≥ 80% | ≥ 80% | ≥ 80% |  | ≥ 50%
6 | CC1(C)N=C(c2cnn3cc(Cl)ccc23)c2ccccc2C1(F)F [Compound E-87, 1-(6-chloropyrazolo[1,5-a]pyridin-3-yl)-4,4-difluoro-3,3-dimethyl-isoquinoline] |  | ≥ 80% | ≥ 80% | ≥ 80% | ≥ 80% | ≥ 80% | ≥ 80% | ≥ 80% | 113 to 118 °C | ≥ 50%
7 | Cc1c(F)ccc2c(C3=NC(C)(C)C(F)(F)c4ccccc43)cnn12 [Compound E-88, 4,4-difluoro-1-(6-fluoro-7-methyl-pyrazolo[1,5-a]pyridin-3-yl)-3,3-dimethyl-isoquinoline] | ≥ 80% | ≥ 80% | ≥ 80% | ≥ 80% | ≥ 80% | ≥ 80% | ≥ 80% | ≥ 80% | 115 to 118 °C | ≥ 50%
8 | CC1(C)N=C(c2cnn3c(Cl)cccc23)c2ccccc2C1(F)F [Compound E-93, 1-(7-chloropyrazolo[1,5-a]pyridin-3-yl)-4,4-difluoro-3,3-dimethyl-isoquinoline] | ≥ 80% | ≥ 80% | ≥ 80% | ≥ 80% | ≥ 80% |  | ≥ 80% | ≥ 80% | 129 to 132 °C | ≥ 50%
